One test deals with MELK (Homo sapiens, UniProt Q14680). Briefly: Kinase assay: MELK activity, phosphorylation of FITC-labeled histone H3 peptide measured by IMAP fluorescence polarization. It counts as biochemical. The conditions noted are these: read-out: IC50 (μM) (kinase assay). In a few lines:
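FP readout: FITC-histone H3 peptide phosphorylation, read 0.5 h (RT) after stopping with 3x volume of IMAP progressive binding solution. Final DMSO 1%.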

A further test has as its system T47D cells. In words: Cell-based assay: anti-proliferative activity, Cell Counting Kit-8, 72 hours (T47D). To be noted: Homo sapiens, T47D, 72 h. In a few lines: (§1)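 Cellular growth is read by CCK-8 colorimetric kit 72 h after inhibitor addition to seeded cells, and IC50 values are derived from the resulting data; MELK protein levels in these lines are checked beforehand by immunoblotting whole crude lysate.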

For another test, the system named is A549 cells. In words: Cell-based assay: anti-proliferative activity, Cell Counting Kit-8, 72 hours (A549). To be noted: Homo sapiens, A549, 72 h, 72 hours. In a few lines:
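A549 cells were seeded in 96-well plates and exposed to candidate inhibitors for 72 hours. Cell growth was then measured with Cell Counting Kit-8, and IC50 values were calculated from the resulting growth data.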

For another test, the system named is HT-1197 cells. In words: Cell-based assay: anti-proliferative activity, Cell Counting Kit-8, 72 hours (HT-1197, negative control without MELK expression). The conditions noted are these: Homo sapiens, HT1197, 72 h, 72 hours. A digest of the protocol:
as §1

Test [1] has as its system DU4475 cells. In words: Cell-based assay: anti-proliferative activity, Cell Counting Kit-8, 72 hours (DU4475). To be noted: Homo sapiens, DU-4475, 72 h.
Test [2] relates to DU4475 cells. The test is described as above. The conditions noted are these: Homo sapiens, DU-4475, 72 h. The source holds these as a separate data set.
The mark [3] stands for this setting: HT1197 cells (negative control).
[4] abbreviates: HT1197 cells (negative control, no MELK expression).

Chain of MELK (Q14680 whole entry, looked up): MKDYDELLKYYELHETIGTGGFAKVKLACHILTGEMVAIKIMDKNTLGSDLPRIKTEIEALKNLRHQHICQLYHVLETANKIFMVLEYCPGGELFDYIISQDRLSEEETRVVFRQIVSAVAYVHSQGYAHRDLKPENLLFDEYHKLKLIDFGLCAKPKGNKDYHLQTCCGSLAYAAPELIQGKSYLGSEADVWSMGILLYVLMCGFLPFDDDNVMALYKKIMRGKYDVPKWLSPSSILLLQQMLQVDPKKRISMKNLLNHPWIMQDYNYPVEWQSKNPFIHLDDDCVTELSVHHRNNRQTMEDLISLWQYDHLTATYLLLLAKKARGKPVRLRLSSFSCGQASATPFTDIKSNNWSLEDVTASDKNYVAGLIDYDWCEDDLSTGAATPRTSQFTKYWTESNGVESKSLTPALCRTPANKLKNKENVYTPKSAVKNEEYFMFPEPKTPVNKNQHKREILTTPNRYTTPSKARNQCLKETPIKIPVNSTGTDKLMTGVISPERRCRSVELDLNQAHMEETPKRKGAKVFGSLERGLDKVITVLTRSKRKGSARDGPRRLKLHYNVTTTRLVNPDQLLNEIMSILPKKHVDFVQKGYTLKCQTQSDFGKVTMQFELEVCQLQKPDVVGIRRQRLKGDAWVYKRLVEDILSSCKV

For `CN(CC#N)C[C@H]1CC[C@@H](Nc2c(C(=O)C3CC3)cnc3ccc(-c4cc(F)c(O)c(Cl)c4)cc23)CC1` [Example 524, 2-((((1R,4R)-4-(6-(3-Chloro-5-fluoro-4-hydroxyphenyl)-3-(cyclopropanecarbonyl)quinolin-4-ylamino)cyclohexyl)methyl)(methyl)amino)acetonitrile], the IC50 on MELK was 0.01 µM; in the test on T47D cells, 0.2 µM; with A549 cells it was 0.39 µM; in the test with HT-1197 cells (setting [3]), 1.7 µM; in the test on DU4475 cells [1], 0.1 µM.
Take `O=C(c1cnc2ccc(-c3cc(Cl)c(O)c(Cl)c3)cc2c1N1CCC(C2CCNCC2)CC1)C1CC1` [Example 596, (4-(4,4′-bipiperidin-1-yl)-6-(3,5-dichloro-4-hydroxyphenyl)quinolin-3-yl)(cyclopropyl)methanone]: the IC50 was 0.0016 µM on MELK; 0.18 µM in the test with T47D cells; 1.5 µM in the test with A549 cells; 5.1 µM with HT-1197 cells (setting [3]); 0.14 µM in the test on DU4475 cells [1].
On the same counts, the results for `CN(C)Cc1cccc(Nc2c(C(=O)C3CC3)cnc3ccc(-c4cc(F)c(O)c(Cl)c4)cc23)c1` [Example 629, (6-(3-chloro-5-fluoro-4-hydroxyphenyl)-4-(3-((dimethylamino)methyl)phenylamino)quinolin-3-yl)(cyclopropyl)methanone] are 0.0051 µM, 0.58 µM, 0.12 µM, 3.3 µM and 0.069 µM.
In the same order, the values of `NC1CCCN(c2ccc(Nc3c(C(=O)C4CC4)cnc4ccc(-c5cc(F)c(O)c(Cl)c5)cc34)cn2)C1` (stereo not drawn) [Example 561, (4-(6-(3-aminopiperidin-1-yl)pyridin-3-ylamino)-6-(3-chloro-5-fluoro-4-hydroxyphenyl)quinolin-3-yl)(cyclopropyl)methanone] are 0.0027 µM, 0.0055 µM, 0.008 µM, 0.3 µM and 0.0066 µM.
On the same counts, the results for `CCCC(=O)c1cnc2ccc(-c3cc(Cl)c(O)c(Cl)c3)cc2c1Nc1ccc(CN(C)C)cc1` [Example 530, 1-(6-(3,5-dichloro-4-hydroxyphenyl)-4-((4-((dimethylamino)methyl)phenyl)amino)quinolin-3-yl)butan-1-one] are 0.0045 µM, 0.07 µM, 0.15 µM, 1.2 µM and 0.086 µM.
`COc1cc(-c2ccc3ncc(C(C)=O)c(Nc4cnc(N5CCNCC5)nc4)c3c2)cc(Cl)c1O` [Example 616, 1-(6-(3-chloro-4-hydroxy-5-methoxyphenyl)-4-(2-(piperazin-1-yl)pyrimidin-5-ylamino)quinolin-3-yl)ethanone]: the IC50 on MELK came out at 0.0044 µM; in the test with T47D cells, 0.22 µM; with A549 cells, 0.66 µM; with HT-1197 cells (setting [3]) it was 1.8 µM; in the test on DU4475 cells [1], 0.5 µM.
Regarding `CN1CCN(C[C@H]2CC[C@H](Nc3c(C(=O)C4CC4)cnc4ccc(-c5cc(Cl)c(O)c(Cl)c5)cc34)CC2)CC1` [Example 618], the IC50 turned out to be 0.23 µM in the test with T47D cells, 0.21 µM with A549 cells, 2.3 µM in the test on HT-1197 cells (setting [3]) and 0.12 µM in the test on DU4475 cells [1].
With `CC(=O)c1cnc2ccc(-c3cc(F)c(O)c(F)c3)cc2c1N[C@H]1CC[C@H](CN(C)C)CC1` [Example 721], the IC50 was determined as 0.035 µM on MELK; 0.15 µM in the test with T47D cells; 0.32 µM in the test on A549 cells; 3.4 µM with HT-1197 cells (setting [4]); 0.22 µM with DU4475 cells [2].
In the same order, the values of `O=C(c1cnc2ccc(-c3cc(Cl)c(O)c(Cl)c3)cc2c1NC1CCNCC1)C1CC1` [Example 726, cyclopropyl(6-(3,5-dichloro-4-hydroxypheny)-4-(piperidin-4-ylamino)quinolin-3-yl)methanone] are 0.0057 µM, 0.56 µM, 0.52 µM, 2.4 µM and 0.14 µM.
In the same order, the values of `CN(CCO)C[C@H]1CC[C@H](Nc2c(C(=O)C3CC3)cnc3ccc(-c4cc(Cl)c(O)c(Cl)c4)cc23)CC1` [Example 634] are 0.0008 µM, 0.099 µM, 0.095 µM, 0.75 µM and 0.042 µM.
In the same order, the values of `CN1CCN(Cc2ccc(Nc3c(C(=O)C4CC4)cnc4ccc(-c5cc(F)c(O)c(Cl)c5)cc34)cn2)CC1` [Example 684, (6-(3-chloro-5-fluoro-4-hydroxyphenyl)-4-(6-((4-methylpiperazin-1-yl)methyl)pyridin-3-ylamino)quinolin-3-yl)(cyclopropyl)methanone] are 0.05 µM, 0.88 µM, 1.5 µM, 15 µM and 0.82 µM.
Regarding `CCC(=O)c1cnc2ccc(-c3cc(Cl)c(O)c(Cl)c3)cc2c1N[C@H]1CC[C@H](CN(C)C)CC1` [Example 715, 1-(6-(3,5-dichloro-4-hydroxyphenyl)-4-((trans-4-((dimethylamino)methyl)cyclohexyl)amino)quinolin-3-yl)propan-1-one], the half-inhibitory concentration (IC50) on MELK came to 0.0015 µM; in the test with T47D cells, 0.087 µM; in the test with A549 cells, 0.11 µM; in the test on HT-1197 cells (setting [4]) it was 0.84 µM; with DU4475 cells [2] it was 0.046 µM.
Regarding `CN(C)C1CCN(c2ccc(Nc3c(C(=O)C4CC4)cnc4ccc(-c5cc(F)c(O)c(Cl)c5)cc34)cn2)C1` (stereo not drawn) [Example 691, (6-(3-chloro-5-fluoro-4-hydroxyphenyl)-4-(6-(3-(dimethylamino)pyrrolidin-1-yl)pyridin-3-ylamino)quinolin-3-yl)(cyclopropyl)methanone], the concentration for half-maximal inhibition (IC50) on MELK was 0.012 µM; in the test with T47D cells, 0.18 µM; in the test with A549 cells it was 0.32 µM; with HT-1197 cells (setting [4]), 5.9 µM; with DU4475 cells [2], 0.22 µM.
As to `CC(=O)c1cnc2ccc(-c3cc(F)c(O)c(Cl)c3)cc2c1N[C@@H]1CC[C@@H](CN(C)C)C1` [Example 717, 1-(6-(3-chloro-5-fluoro-4-hydroxyphenyl)-4-((1R,3R)-3-((dimethylamino)methyl)cyclopentylamino)quinolin-3-yl)ethanone], the half-inhibitory concentration (IC50) came to 0.011 µM at MELK; 0.42 µM in the test with T47D cells; 0.65 µM with A549 cells; 2 µM in the test on HT-1197 cells (setting [4]); 0.34 µM with DU4475 cells [2].
In the same order, the values of `COc1cc(-c2ccc3ncc(C(=O)C4CC4)c(N[C@H]4CC[C@H](CN(C)CCO)CC4)c3c2)cc(Cl)c1O` [Example 633] are 0.0016 µM, 0.21 µM, 0.12 µM, 2.3 µM and 0.15 µM.
On the same counts, the results for `COc1cc(-c2ccc3ncc(C(=O)C4CC4)c(Nc4ccc(OCCN(C)C)nc4)c3c2)cc(Cl)c1O` [Example 712, (6-(3-chloro-4-hydroxy-5-methoxyphenyl)-4-(6-(2-(dimethylamino)ethoxy)pyridin-3-ylamino)quinolin-3-yl)(cyclopropyl)methanone] are 0.0036 µM, 0.31 µM, 0.31 µM, 5.4 µM and 0.34 µM.
On the same counts, the results for `CC(=O)c1cnc2ccc(-c3cc(Cl)c(O)c(Cl)c3)cc2c1Nc1ccc2c(c1)CCC2N(C)C` (stereo not drawn) [Example 720, 1-(6-(3,5-dichloro-4-hydroxyphenyl)-4-((1-(dimethylamino)-2,3-dihydro-1H-inden-5-yl)amino)quinolin-3-yl)ethanone] are 0.0033 µM, 0.059 µM, 0.063 µM, 0.38 µM and 0.032 µM.
For the compound `CN(C)CC(O)c1ccc(Nc2c(C(=O)C3CC3)cnc3ccc(-c4cc(Cl)c(O)c(Cl)c4)cc23)cc1` (stereo not drawn) [Example 709, Cyclopropyl{6-(3,5-dichloro-4-hydroxyphenyl)-4-[4-(2-(dimethylamino)-1-hydroxyethyl)phenylamino]quinolin-3-yl}methanone], the IC50 at MELK is 0.0035 µM; with T47D cells, 0.2 µM; with A549 cells, 0.14 µM; with HT-1197 cells (setting [4]) it was 3.8 µM; with DU4475 cells [2] it was 0.077 µM.
`NC1CCCN(c2ccc(Nc3c(C(=O)C4CC4)cnc4ccc(-c5cc(F)c(O)c(F)c5)cc34)cn2)C1` (stereo not drawn) [Example 725, (4-(6-(3-Aminopiperidin-1-yl)pyridin-3-ylamino)-6-(3,5-difluoro-4-hydroxyphenyl)quinolin-3-yl)(cyclopropyl)methanone]: the IC50 at MELK stood at 0.003 µM; in the test on T47D cells, 0.0078 µM; with A549 cells, 0.012 µM; in the test with HT-1197 cells (setting [4]) it was 0.11 µM; in the test on DU4475 cells [2], 0.01 µM.
In the same order, the values of `CN(CCO)C[C@H]1CC[C@H](Nc2c(C(=O)C3CC3)cnc3ccc(-c4cc(F)c(O)c(Cl)c4)cc23)CC1` [Example 632, (6-(3-chloro-5-fluoro-4-hydroxyphenyl)-4-((trans-4-(((2-hydroxyethyl)(methyl)amino)methyl)cyclohexyl)amino)quinolin-3-yl)(cyclopropyl)methanone] are 0.0031 µM, 0.069 µM, 0.1 µM, 0.72 µM and 0.069 µM.

For the origin of these results see patent US9120749B2, “Quinoline derivatives and MELK inhibitors containing the same” (ONCOTHERAPY SCIENCE, INC., priority 2010, dated 2015).
